In patent US20260200885A1, “BENZOPYRONE COMPOUNDS AS WELL AS PREPARATION METHOD THEREFOR AND USE THEREOF” (CHENGDU DI’AO JIUHONG PHARMACEUTICAL FACTORY, priority 2022, published 2026):
Where two headings read alike, the source gives them in different places.

Legend:
A2780 cells = assay: Determination of cell activity (CellTiter-Glo Luminescent Cell Viability Assay); type: cell-based; conditions: A2780 cells, 7 days treatment, CellTiter-Glo, read-out: IC50
Experimental: To examine the effect of compounds on cell viability, ATP was directly quantified using the CellTiter-Glo Luminescent Cell Viability Assay (Promega) to determine the number of viable cells.
Cell density was selected based on optimal signal intensity and growth curve for the inoculation of A2780 cells. The cells were incubated at 37° C. and 5% C02 overnight. Cells were treated with blank group, DMSO group and compound group, respectively, at 37° C. and 5% C02 for 7 days. The prepared solutions were added to cell wells according to the instructions of CellTiter-Glo (Promega), and shaken at a speed of 400 g for 2 min. Then, the solutions were centrifuged at 1000 g for 2 min and incubated at rest for 30 min to ensure a complete reaction. […] readings were taken using a multi-label microplate reader (Perkin Elmer) to calculate IC50 values.

[1] = Pharmacokinetic assay in CD1 mice; type: in vivo; conditions: for F: bioavailability; for maximum plasma concentration Cmax compared with IMT1B / plasma exposure AUC compared with IMT1B: comparison in words; for half-life: Table I-3, read-out: T1/2 (h) for oral administration (converted)
Experimental: pharmacokinetic assay of compounds was carried out in CD1 mice aged 6-8 weeks with IMT1B as a positive control. The compounds and the positive control were dissolved in 30% aqueous hydroxypropyl-β-cyclodextrin solution containing 25% PEG400 and administered via intravenous injection (1 mg/kg) or intragastric administration (5 mg/kg). Blood samples were collected at 0.033, 0.083, 0.25, 0.5, 1, 2, 4, 8, 24 h and 0.083, 0.25, 0.5, 1, 2, 4, 8, 24 h respectively after administration.
The concentration of the compounds in plasma samples was analyzed using the LC-MS/MS method. Pharmacokinetic calculations were performed using WinNonlin (Phoenix™, version 8.3) or other similar software. The following pharmacokinetic parameters were calculated from the plasma concentration vs. time data: for intravenous administration: T1/2, C0, AUClast, AUCinf, MRTinf, Cl, Vss, regression coefficient, etc.; for oral administration: T1/2, Cmax, Tmax, AUClast, AUCinf, bioavailability, etc. The above parameter data were statistically calculated and described using descriptive statistics such as mean value and standard deviation.

[2] = system: RNA polymerase III (RNA pol III); assay: Compound selectivity by real-time fluorescent quantitative PCR in A549 cells: gene regulated by RNA pol III; type: cell-based; conditions: for Expression of genes regulated by RNA pol III (5S): 72 h, qPCR ΔΔCt, significance by T-Test
Experimental: (§1) Tumor cells A549 were plated at an appropriate density and incubated overnight. The cells were treated with compounds or DMSO for 72 h, and total cellular RNA was extracted according to the instructions of TaqMan™ Fast Advanced Cells-to-CT™ Kit (Invitrogen #A35377). Briefly, the cells were washed with PBS twice. Supernatants were discarded, and 50 μL/well of lysis buffer was added. The cells were incubated at room temperature for 5 min. Then, 5 μL of stop buffer was added. The mixture was left to stand for 2 min and then placed on ice in preparation for reverse transcription and extraction of cDNA. QPCR was carried out according to the requirements of TaqMan® Fast Advanced Master Mix (Invitrogen). Eukaryotes have three different nuclear RNA polymerases, namely RNA polymerase I (RNA pol I), RNA polymerase II (RNA pol II) and RNA polymerase III (RNA pol III). To eliminate the effect of the compounds on the inhibition of the activity of other RNA polymerases, we selected 18S rRNA, 28S rRNA; β-actin; 5S rRNA; ND1, CYTB and COX1 transcriptionally regulated by RNA Pol I, II, III and POLRMT. Whether the mRNA levels of these genes were inhibited was detected. The qPCR results were analyzed by the ΔΔCt method and statistically analyzed by Graphpad8.0. The significant differences were statistically analyzed by T-Test.

POLRMT = target: T1, POLRMT (Homo sapiens, UniProt O00411); assay: Compound selectivity by real-time fluorescent quantitative PCR in A549 cells: genes regulated by POLRMT; type: cell-based; conditions: 72 h, qPCR ΔΔCt, significance by T-Test
T1 construct: endogenous in cells; host or cells: A549
Experimental: as §1

[3] = system: RNA polymerase I (RNA pol I); assay: Compound selectivity by real-time fluorescent quantitative PCR in A549 cells: genes regulated by RNA pol I; type: cell-based; conditions: for Expression of genes regulated by RNA pol I (18S, 28S): 72 h, qPCR ΔΔCt, significance by T-Test
Experimental: as §1

[4] = system: RNA polymerase II (RNA pol II); assay: Compound selectivity by real-time fluorescent quantitative PCR in A549 cells: gene regulated by RNA pol II; type: cell-based; conditions: for Expression of genes regulated by RNA pol II (β-actin): 72 h, qPCR ΔΔCt, significance by T-Test
Experimental: as §1

MOLM-13-luc tumor cells = assay: In vivo pharmacodynamic test, MOLM-13-luc orthotopic mouse model of leukemia
Experimental: The efficacy of compounds was evaluated using an orthotopic mouse model of leukemia. […] After the cell confluence reached 80%-90%, the cells were subcultured into separate flasks. The tumor cells in the logarithmic growth phase were used for the inoculation of tumors in vivo. Approximately 7 days after the inoculation of the tumor cells, according to the body weights of the animals and optical signal intensity at tumor sites, the animals were randomly divided into 4 groups, namely solvent control group [5% TPGS in PH 8 buffer (50 mM potassium dihydrogen phosphate buffer), BID, intragastric administration], IMT1B (50 mpk, BID, intragastric administration), A1-1-5 (25 mpk, BID, intragastric administration) and A1-1-5 (50 mpk, BID, intragastric administration), with 10 animals in each group. Tumor growth was monitored, and behavioral changes in the animals were also monitored.
During the experiment, all the animals were weighed twice a week. The percentage of body weight change (BW change, %) was calculated using the following formula: BW change=(BW Day X/BW Day 0)×100, where BW Day X is the body weight of the animals on the day of administration, and BW Day 0 is the body weight of the animals on the day of grouping.
Mice were imaged twice a week according to their status using the small animal living imaging system IVIS Lumina III (Perkin Elmer). The signal intensity of the bioluminescence imaging (BLI, unit: photons/s) at tumor cell inoculation sites in mice was monitored, which served as the main indicator for evaluating tumor growth and the efficacy of drugs. The specific operation procedures were as follows.
After the mice were intraperitoneally injected with D-luciferin (manufactured by Perkin Elmer, 15 mg/mL solution, injected at […] according to the body weight of experimental animals), the animals were subjected to inhalation anesthesia using 1%-2% isoflurane. Approximately 10 minutes after the injection of D-luciferin, the animals were imaged using IVIS Lumina III. The imaging results were analyzed and processed using the Living Image software (Perkin Elmer), and the optical signal intensity in the ROI (regions of interest) of the whole body of each animal was calculated. […] The administration and imaging were continued for the animals in other groups. At the endpoint of the experiment, the median survival times of all groups throughout the experiment were calculated, and the curves were plotted.

[5] = main pharmacokinetic parameters, Table I-4
[6] = mouse, plasma, po, 5 mg/kg, main pharmacokinetic parameters, Table I-4
[7] = mouse, plasma, po, 5 mg/kg, main pharmacokinetic parameters, Table I-4, read-out: Cmax
[8] = mouse, plasma, po, intragastric administration 5 mg/kg
[9] = at the same dose (50 mpk, BID, intragastric)

T1 sequence (O00411 42-1230): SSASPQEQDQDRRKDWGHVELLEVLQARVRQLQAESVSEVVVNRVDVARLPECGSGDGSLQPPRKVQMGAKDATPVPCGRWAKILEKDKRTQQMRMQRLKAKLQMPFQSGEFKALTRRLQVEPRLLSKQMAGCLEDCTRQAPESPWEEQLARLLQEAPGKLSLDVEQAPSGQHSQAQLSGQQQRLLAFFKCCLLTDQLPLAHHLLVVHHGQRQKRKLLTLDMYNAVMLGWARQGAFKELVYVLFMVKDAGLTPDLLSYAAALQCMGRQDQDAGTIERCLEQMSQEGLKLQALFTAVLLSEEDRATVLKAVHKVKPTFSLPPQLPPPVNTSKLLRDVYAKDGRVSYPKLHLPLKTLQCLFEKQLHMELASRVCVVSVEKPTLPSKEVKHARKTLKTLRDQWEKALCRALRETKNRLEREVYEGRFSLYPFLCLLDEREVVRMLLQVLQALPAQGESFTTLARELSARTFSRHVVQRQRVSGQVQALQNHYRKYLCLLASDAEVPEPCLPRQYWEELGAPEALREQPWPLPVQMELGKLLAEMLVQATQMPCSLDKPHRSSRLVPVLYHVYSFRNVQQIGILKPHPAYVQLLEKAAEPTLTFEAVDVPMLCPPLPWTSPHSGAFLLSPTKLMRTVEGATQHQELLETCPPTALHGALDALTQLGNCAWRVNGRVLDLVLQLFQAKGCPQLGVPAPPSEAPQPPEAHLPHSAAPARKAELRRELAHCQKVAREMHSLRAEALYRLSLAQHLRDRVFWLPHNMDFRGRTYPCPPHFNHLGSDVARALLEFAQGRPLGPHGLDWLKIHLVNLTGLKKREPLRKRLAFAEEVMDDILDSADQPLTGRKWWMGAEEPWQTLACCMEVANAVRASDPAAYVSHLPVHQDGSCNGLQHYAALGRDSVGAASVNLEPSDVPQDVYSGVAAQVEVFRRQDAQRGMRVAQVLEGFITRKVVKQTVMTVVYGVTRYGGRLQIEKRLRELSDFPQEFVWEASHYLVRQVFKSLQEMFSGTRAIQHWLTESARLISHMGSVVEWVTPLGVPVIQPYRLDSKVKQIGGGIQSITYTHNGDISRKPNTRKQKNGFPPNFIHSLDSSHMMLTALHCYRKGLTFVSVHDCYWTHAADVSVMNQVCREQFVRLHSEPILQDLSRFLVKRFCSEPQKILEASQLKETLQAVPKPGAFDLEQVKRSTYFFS

Row | IC50 (A2780 cells; Homo sapiens, 168 h) | F ([1]; Table I-4) | T1/2 [1, 5] | half-life [1, 8] | SMILES | maximum plasma concentration Cmax compared with IMT1B [1] | plasma exposure AUC compared with IMT1B [1] | AUC(0-inf) [1, 6] | AUC(0-t) [1, 6] | Cmax [1, 7] | Expression of genes regulated by RNA pol III (5S) [2] | Expression of genes regulated by POLRMT (ND1, CYTB, COX1) (POLRMT) | Expression of genes regulated by RNA pol I (18S, 28S) [3] | Expression of genes regulated by RNA pol II (β-actin) [4] | other results
1 | 20 to 100 nM | 137.555% | 3.985 h | 3.98 h | C[C@H](Oc1ccc2c(-c3ccc(F)cc3Cl)cc(=O)oc2c1)C(=O)c1cccc(C(=O)O)c1 [Compound A2-1-5] | significantly superior to IMT1B | significantly superior to IMT1B | 9870 ng·h/mL | 9740 ng·h/mL | 1060 ng/mL | – | – | – | – | –
2 | 20 to 100 nM | – | – | 6.91 h | CC(Oc1ccc2c(-c3ccc(F)cc3Cl)cc(=O)oc2c1)C(=O)c1ccncc1 (stereo not drawn) [α-13] | – | – | – | – | – | – | – | – | – | –
3 | 20 to 100 nM | – | – | 3.57 h | CC(Oc1ccc2c(-c3ccc(F)cc3Cl)cc(=O)oc2c1)C(=O)c1cccc(S(N)(=O)=O)c1 (centres unmarked) [Compound A-1-2-1-40] | – | – | – | – | – | – | – | – | – | –

Second part, the compound before the results:

Row | SMILES | IC50 (A2780 cells; Homo sapiens, 168 h) | F ([1]; Table I-4) | T1/2 [1, 5] | half-life [1, 8] | maximum plasma concentration Cmax compared with IMT1B [1] | plasma exposure AUC compared with IMT1B [1] | AUC(0-inf) [1, 6] | AUC(0-t) [1, 6] | Cmax [1, 7] | Expression of genes regulated by RNA pol III (5S) [2] | Expression of genes regulated by POLRMT (ND1, CYTB, COX1) (POLRMT) | Expression of genes regulated by RNA pol I (18S, 28S) [3] | Expression of genes regulated by RNA pol II (β-actin) [4] | other results
4 | C[C@@H](Oc1ccc2c(-c3ccc(F)cc3Cl)cc(=O)oc2c1)C(=O)c1cccc(C(=O)O)c1 [Compound A1-1-5] | 20 to 100 nM | 85.846% | 3.158 h | 3.16 h | significantly superior to IMT1B | significantly superior to IMT1B | 179000 ng·h/mL | 178000 ng·h/mL | 44100 ng/mL | (-) ((-) represents P≥ 0.05) | (++) ((++) represents P < 0.01) | (-) ((-) represents P≥ 0.05) | (-) ((-) represents P≥ 0.05) | efficacy at a relatively low dose (MOLM-13-luc tumor cells; MOLM13 orthotopic hematological tumor model, BID intragastric): effective at a relatively low dose; tumor inhibitory effect (BLI imaging) (MOLM-13-luc tumor cells; MOLM13 orthotopic hematological tumor model, BID intragastric, 25 and 50 mpk): good tumor inhibitory effect; median survival time compared with IMT1B (MOLM-13-luc tumor cells; [9]): significantly superior to IMT1B; tumor inhibition compared with IMT1B (MOLM-13-luc tumor cells; [9]): significantly superior to IMT1B
5 | C[C@@H](Oc1ccc2c(-c3ccc(F)cc3Cl)cc(=O)oc2c1)C(=O)N1CCC[C@H](C(=O)O)C1 [IMT1B, reference compound] | – | 80.236% | 2.445 h | – | – | – | – | – | – | (-) ((-) represents P≥ 0.05) | (++) ((++) represents P < 0.01) | (-) ((-) represents P≥ 0.05) | (-) ((-) represents P≥ 0.05) | IC50 (A2780 cells): 20 to 100 nM; inhibition of the activity of RNA polymerase III ([2]; qPCR, in words): do not inhibit; inhibition of the activity of RNA polymerase I ([3]; qPCR, in words): do not inhibit; inhibition of the activity of RNA polymerase II ([4]; qPCR, in words): do not inhibit; T1/2 (h) for oral administration ([1]; intragastric administration 5 mg/kg, Table I-3): 2.445 h; AUCInf [1, 5]: 24420.076 ng·h/mL; AUClast [1, 5]: 24389.836 ng·h/mL; Cmax [1, 5]: 7300 ng/mL
